{
  "source": "patent US20250082695A1",
  "about": "“USE OF GLYCEROL FOR INCREASING BUTYRATE PRODUCTION BY BACTERIA IN A CONSORTIUM” (PHARMABIOME AG, priority 2019, published 2025)",
  "type_in_all_cases": "cell-based",
  "key": {"[1]": {"system": "bacterial consortium PB010", "assay": "Continuous co-culture of consortium PB010 in bioreactors with and without glycerol, absolute metabolite concentrations", "details": "PB010, medium with 30 mM glycerol vs without, day 8 after inoculation", "text": "FIG. 4: Absolute metabolite concentration of the continuously co-cultured bacterial consortium PB010 in a bioreactor at day 8 after inoculation: (1) cultured in a culture medium without glycerol, (2) cultured in a culture medium supplemented with glycerol. Absolute metabolites of the two reactors are represented on the x-axis and the concentrations of acetate, propionate, and butyrate are indicated in mM on the y-axis.\nThe concentrations of the produced metabolites were quantified by refractive index detection HPLC (Thermo Scientific Accela™, ThermoFisher Scientific; HPLC-RI)). HPLC-RI analysis was performed using a SecurityGuard Cartridges Carbo-H (4×3.0 mm) (Phenomenex, Torrence, USA) as guard-column connected to a Rezex ROA-Organic Acid H+ column (300×7.8 mm) (Phenomenex). Bacteria cultures to be analyzed were centrifuged at 14.000-x g for 10 min at 4° C. Filter-sterilized ([…]) supernatants were analyzed. Injection volume for each sample was […]. […] Peaks were analyzed using AgilentEzChrome Elite software (Version: 3.3.2 SP2, Agilent Technologies, Inc. Pleasanton, USA). […]\n(§1) The bioreactor was consecutively operated at pH 6.0 for 24 h in order to allow growth of primary degraders and subsequent consumption of the produced intermediate metabolites. Growth was monitored by base consumption and optical density. Metabolites were monitored using HPLC-RI as described above. […]"}, "[2]": {"system": "bacterial consortium PB002", "assay": "Continuous co-culture of consortium PB002 in a bioreactor, daily metabolite concentrations before and after glycerol supplementation", "details": "PB002, addition of 30 mM glycerol at day 38 of continuous culture", "text": "FIG. 1: Daily metabolite concentration of the continuously co-cultured bacterial consortium PB002 in a bioreactor before and after the supplementation of glycerol. Day of sampling from day 30 to day 55 after inoculation are represented on the x-axis and the concentrations of acetate, propionate, butyrate, formate, lactate, and succinate indicated in mM on the y-axis.\nThe concentrations of the produced metabolites were quantified by refractive index detection HPLC (Thermo Scientific Accela™, ThermoFisher Scientific; HPLC-RI)). […] Bacteria cultures to be analyzed were centrifuged at 14.000-x g for 10 min at 4° C. Filter-sterilized ([…]) supernatants were analyzed. […] Peaks were analyzed using AgilentEzChrome Elite software (Version: 3.3.2 SP2, Agilent Technologies, Inc. Pleasanton, USA). […]\nas §1\nThe consortium PB002 was continuously cultured in a bioreactor during 55 days. Metabolite concentrations were measured daily before and after glycerol supplementation (addition of 30 mM glycerol) at day 38."}, "[3]": {"system": "butyrate producing strains of group A6", "assay": "qPCR quantification of absolute abundances of PB002 strains during continuous culture", "details": "glycerol supplementation", "text": "FIG. 2: Absolute abundances of all strains of the continuously cultured consortium PB002 in a bioreactor before and after the supplementation of glycerol. Abundances were quantified using qPCR and are indicated in copies of the 16S rRNA gene/ml of culture for the strains representing A1, A2, A3, A4, A5, A6, A7, A8, and A9.\nTo test maintenance of all bacterial strains of exemplary consortia PB002 and PB010 in the culture over time, qPCR quantification of the single strains of each consortium was performed using the primers listed in Table 3.\nDNA from pellets of the fermentation effluent was extracted using the FastDNA™ SPIN Kit for Soil (MP Bio). Genomic DNA extracts were 10-fold diluted using DNA-free H2O. qPCRs were performed using Mastermix SYBR® green 2× and LowRox (Kapa Biosystems), primers (10 μM) and DNA-free H2O were used in a ABI 7500 FAST thermal cycler (Applied Biosystems) as recommended by the producer and quantified using standards of amplified whole 16S rRNA gene amplicon sequences of the strains cloned into the pGEMT easy vector (Promega, Madison WI, USA). Amplification of the whole 16S rRNA gene was performed with a combination of whole 16S rRNA gene amplification primers using one forward and one reverse primer from the primers listed in Table 4. qPCR quantification of the single strains is shown in copies of genomic 16S rRNA gene per ml of culture (FIG. 2). […]"}, "[4]": {"system": "bacterial consortium PB002", "assay": "Continuous co-culture, relative end metabolite concentrations on day 2 and 8 (glycerol supplemented after day 2), PB002", "details": "PB002 (n=2), glycerol supplemented after day 2, day 8 vs day 2", "method": "(§2) FIG. 5: Relative end metabolite concentration of the continuously co-cultured bacterial consortia PB002 (n=2) and PB010 (n=3) in bioreactors on day 2 and 8 of co-cultivation. All bioreactors were cultivated for 48 hours in a medium without glycerol.\n(§3) The bacterial consortium PB002 and the bacterial consortium PB010 were continuously cultured in bioreactors. Relative end metabolite concentrations were determined on day 2 and 8 of co-cultivation.\n(§4) All bioreactors were cultivated for 48 hours in a medium without glycerol."}, "[5]": {"system": "bacterial consortium PB010", "assay": "Continuous co-culture, relative end metabolite concentrations on day 2 and 8 (glycerol supplemented after day 2), PB010", "details": "PB010 (n=3), glycerol supplemented after day 2, day 8 vs day 2", "method": "as §2, §3, §4"}},
  "data": [
    {"smiles": "OCC(O)CO", "note": "[glycerol]", "values": [
      {"measurement": "accumulation of succinate, lactate or formate", "setting": "[1]", "result": "no accumulation"},
      {"measurement": "butyrate production of the consortium", "setting": "[1]", "result": "stimulates butyrate production"},
      {"measurement": "accumulation of the intermediate metabolites formate, lactate, succinate", "setting": "[2]", "result": "no accumulation"},
      {"measurement": "butyrate production of the consortium", "setting": "[2]", "result": "enhanced butyrate production immediately"},
      {"measurement": "abundance of butyrate producing strains of group A6 (16S rRNA gene copies/ml)", "setting": "[3]", "result": "positively affects abundance"},
      {"measurement": "butyrate production (relative end metabolite concentration)", "setting": "[4]", "result": "increase in butyrate production"},
      {"measurement": "butyrate production (relative end metabolite concentration)", "setting": "[5]", "result": "increase in butyrate production"}
    ]}
  ]
}
